Experimental data reported in ChEMBL document CHEMBL1132736, “Identification of optimal anion spacing for anti-HIV activity in a series of cosalane tetracarboxylates” (Bioorg Med Chem Lett, 2000).

Key:
Details in all cases: Homo sapiens
CEM-SS [1] = assay: Concentration of compound required to reduce the cellular viability in uninfected CEM-SS cells by 50%; assay type: functional
MT4 [2] = assay: Concentration of compound required to reduce the cellular viability in uninfected MT-4 cells by 50%; assay type: functional
CEM-SS [3] = assay: Effective concentration of compound required to reduce the cytopathic effect of HIV-1RF in CEM-SS cells by 50%; assay type: functional, cell-based
MT4 [4] = assay: Effective concentration of compound required to reduce the cytopathic effect of HIV-2ROD in MT-4 cells by 50%; assay type: functional, cell-based
MT4 [5] = assay: Effective concentration of compound required to reduce the cytopathic effect of HIV-1 IIIB in MT-4 cells by 50%; assay type: functional, cell-based

Row | EC50 (CEM-SS [3]) [µM] | Structure (SMILES) | CC50 (CEM-SS [1]) [µM] | CC50 (MT4 [2]) [µM] | EC50 (MT4 [4]) [µM] | EC50 (MT4 [5]) [µM]
1 |  | CC(C)CCCC(C)[C@H]1CC[C@H]2[C@@H]3CCC4C[C@@H](CCC=C(c5cc(Cl)c(O)c(C(=O)O)c5)c5cc(Cl)c(O)c(C(=O)O)c5)CC[C@]4(C)[C@H]3CC[C@]12C (stereo not given in full) | > 200 | > 200 |  | 
2 | > 100 | CC(C)CCCC(C)[C@H]1CC[C@H]2[C@@H]3CCC4C[C@@H](CCC=C(c5cc(Cl)c(OCc6ccc(-c7ccc(C(=O)O)cc7)cc6)c(C(=O)O)c5)c5cc(Cl)c(OCc6ccc(-c7ccc(C(=O)O)cc7)cc6)c(C(=O)O)c5)CC[C@]4(C)[C@H]3CC[C@]12C (stereo not given in full) | > 100 | 80 | > 80 | > 80
3 | 5.17 | CC(C)CCCC(C)[C@H]1CC[C@H]2[C@@H]3CCC4C[C@@H](CCC=C(c5cc(Cl)c(OCc6ccc(-c7ccccc7C(=O)O)cc6)c(C(=O)O)c5)c5cc(Cl)c(OCc6ccc(-c7ccccc7C(=O)O)cc6)c(C(=O)O)c5)CC[C@]4(C)[C@H]3CC[C@]12C (stereo not given in full) | > 200 | > 125 | > 125 | 12.1
4 |  | CC(C)CCCC(C)[C@H]1CC[C@H]2[C@@H]3CCC4C[C@@H](CCC=C(c5cc(Cl)c(OCc6ccc(C(=O)O)cc6)c(C(=O)O)c5)c5cc(Cl)c(OCc6ccc(C(=O)O)cc6)c(C(=O)O)c5)CC[C@]4(C)[C@H]3CC[C@]12C (stereo not given in full) | 72 | 88 | 22 | 
5 | 1.78 | CC(C)CCCC(C)[C@H]1CC[C@H]2[C@@H]3CCC4C[C@@H](CCC=C(c5cc(Cl)c(OCc6ccc(CC(=O)O)cc6)c(C(=O)O)c5)c5cc(Cl)c(OCc6ccc(CC(=O)O)cc6)c(C(=O)O)c5)CC[C@]4(C)[C@H]3CC[C@]12C (stereo not given in full) | 133 | > 125 | 124 | 4.4
6 |  | CC(C)CCCC(C)[C@H]1CC[C@H]2[C@@H]3CCC4C[C@@H](CCC=C(c5cc(Cl)c(OCc6cccc(C(=O)O)c6)c(C(=O)O)c5)c5cc(Cl)c(OCc6cccc(C(=O)O)c6)c(C(=O)O)c5)CC[C@]4(C)[C@H]3CC[C@]12C (stereo not given in full) | > 316 | 29 |  | 

Row | Structure (SMILES) | EC50 (CEM-SS [3]) [µM] | CC50 (CEM-SS [1]) [µM] | CC50 (MT4 [2]) [µM] | EC50 (MT4 [4]) [µM] | EC50 (MT4 [5]) [µM]
7 | CC(C)CCCC(C)[C@H]1CC[C@H]2[C@@H]3CCC4C[C@@H](CCC=C(c5cc(Cl)c(OCc6ccccc6C(=O)O)c(C(=O)O)c5)c5cc(Cl)c(OCc6ccccc6C(=O)O)c(C(=O)O)c5)CC[C@]4(C)[C@H]3CC[C@]12C (stereo not given in full) | 39.8 | > 316 | 37 |  | 
8 | CC(C)CCCC(C)[C@H]1CC[C@H]2[C@@H]3CCC4C[C@@H](CCC=C(c5cc(Cl)c(OCc6ccc(-c7cccc(C(=O)O)c7)cc6)c(C(=O)O)c5)c5cc(Cl)c(OCc6ccc(-c7cccc(C(=O)O)c7)cc6)c(C(=O)O)c5)CC[C@]4(C)[C@H]3CC[C@]12C (stereo not given in full) | 6.11 | > 200 | 95 | > 95 | 14.5
